In ChEMBL document CHEMBL4507283, “Data for DCP probe BI-1935” (2021):

Columns and labels:
[1] = biological target: Inhibitor of nuclear factor kappa-B kinase subunit alpha (Homo sapiens) (UniProt O15111); details: Compound concentration 1000.0 nM
[2] = biological target: Serine/threonine-protein kinase TAO3 (Homo sapiens) (UniProt Q9H2K8); details: Compound concentration 1000.0 nM
[3] = biological target: Ephrin type-A receptor 2 (Homo sapiens) (UniProt P29317); details: Compound concentration 1000.0 nM
[4] = biological target: Dual specificity mitogen-activated protein kinase kinase 4 (Homo sapiens) (UniProt P45985); details: Compound concentration 1000.0 nM
[5] = test system: Mast/stem cell growth factor receptor Kit (Homo sapiens), P10721 [D816H]; details: Compound concentration 1000.0 nM
[6] = test system: Receptor-type tyrosine-protein kinase FLT3 (Homo sapiens), P36888 [D835V]; details: Compound concentration 1000.0 nM
[7] = biological target: Neprilysin (Homo sapiens) (UniProt P08473); experiment: NEUTRALENDOP Eurofins-Panlabs selectivity data (BI); details: Compound concentration 10.0 uM
[8] = biological target: Dual specificity protein kinase CLK2 (Homo sapiens) (UniProt P49760); details: Compound concentration 1000.0 nM
[9] = biological target: Casein kinase I isoform alpha (Homo sapiens) (UniProt P48729); details: Compound concentration 1000.0 nM
[10] = biological target: Microtubule-associated serine/threonine-protein kinase 1 (Homo sapiens) (UniProt Q9Y2H9); details: Compound concentration 1000.0 nM
[11] = biological target: 5-hydroxytryptamine receptor 1B (Homo sapiens) (UniProt P28222); details: Compound concentration 10.0 uM
[12] = biological target: Dual specificity protein kinase TTK (Homo sapiens) (UniProt P33981); details: Compound concentration 1000.0 nM
[13] = test system: Receptor-type tyrosine-protein kinase FLT3 (Homo sapiens), P36888 [D835H]; details: Compound concentration 1000.0 nM
[14] = test system: Receptor-type tyrosine-protein kinase FLT3 (Homo sapiens), P36888 [UNDEFINED MUTATION]; details: Compound concentration 1000.0 nM
[15] = biological target: Mitogen-activated protein kinase kinase kinase kinase 5 (Homo sapiens) (UniProt Q9Y4K4); details: Compound concentration 1000.0 nM
[16] = biological target: Cyclin-dependent kinase 5 (Homo sapiens) (UniProt Q00535); details: Compound concentration 1000.0 nM
[17] = biological target: Mast/stem cell growth factor receptor Kit (Homo sapiens) (UniProt P10721); details: Compound concentration 1000.0 nM
[18] = biological target: Mitogen-activated protein kinase kinase kinase 4 (Homo sapiens) (UniProt Q9Y6R4); details: Compound concentration 1000.0 nM
[19] = biological target: LIM domain kinase 1 (Homo sapiens) (UniProt P53667); details: Compound concentration 1000.0 nM
[20] = biological target: Casein kinase I isoform gamma-1 (Homo sapiens) (UniProt Q9HCP0); details: Compound concentration 1000.0 nM
[21] = test system: Tyrosine-protein kinase ABL1 (Homo sapiens), P00519 [E255K]; details: Compound concentration 1000.0 nM
[22] = biological target: Proto-oncogene tyrosine-protein kinase receptor Ret (Homo sapiens) (UniProt P07949); details: Compound concentration 1000.0 nM
[23] = biological target: Serine/threonine-protein kinase Nek6 (Homo sapiens) (UniProt Q9HC98); details: Compound concentration 1000.0 nM
[24] = biological target: Serine/threonine-protein kinase PAK 2 (Homo sapiens) (UniProt Q13177); details: Compound concentration 1000.0 nM
[25] = biological target: Serine/threonine-protein kinase MRCK gamma (Homo sapiens) (UniProt Q6DT37); details: Compound concentration 1000.0 nM
[26] = biological target: BDNF/NT-3 growth factors receptor (Homo sapiens) (UniProt Q16620); details: Compound concentration 1000.0 nM
[27] = biological target: Calcium-dependent protein kinase 1 (Plasmodium falciparum) (UniProt P62344); details: Compound concentration 1000.0 nM
[28] = biological target: Adrenergic receptor alpha-2 (Rattus norvegicus) (UniProt P22086+P19328+P22909); experiment: ALPHA2/R Eurofins-Panlabs selectivity data (BI); format: protein assay; details: Compound concentration 10.0 uM
[29] = biological target: Serine/threonine-protein kinase Sgk3 (Homo sapiens) (UniProt Q96BR1); details: Compound concentration 1000.0 nM
[30] = biological target: Mitogen-activated protein kinase kinase kinase 9 (Homo sapiens) (UniProt P80192); details: Compound concentration 1000.0 nM
[31] = biological target: Muscarinic acetylcholine receptor (Rattus norvegicus) (UniProt P08482+P08483+P08485+P08911+P10980); experiment: MUSCARIN/NS Eurofins-Panlabs selectivity data (BI); format: protein assay; details: Compound concentration 10.0 uM
[32] = biological target: Cyclin-dependent kinase-like 1 (Homo sapiens) (UniProt Q00532); details: Compound concentration 1000.0 nM
[33] = biological target: Testis-specific serine/threonine-protein kinase 3 (Homo sapiens) (UniProt Q96PN8); details: Compound concentration 1000.0 nM
[34] = biological target: Calcium/calmodulin-dependent protein kinase type II subunit alpha (Homo sapiens) (UniProt Q9UQM7); details: Compound concentration 1000.0 nM
[35] = biological target: Serine/threonine-protein kinase DCLK2 (Homo sapiens) (UniProt Q8N568); details: Compound concentration 1000.0 nM
[36] = biological target: Ribosomal protein S6 kinase alpha-5 (Homo sapiens) (UniProt O75582); details: Compound concentration 1000.0 nM
[37] = biological target: Mitogen-activated protein kinase kinase kinase 15 (Homo sapiens) (UniProt Q6ZN16); details: Compound concentration 1000.0 nM
[38] = biological target: Dual specificity protein kinase CLK1 (Homo sapiens) (UniProt P49759); details: Compound concentration 1000.0 nM
[39] = biological target: Ephrin type-A receptor 3 (Homo sapiens) (UniProt P29320); details: Compound concentration 1000.0 nM
[40] = biological target: Citron Rho-interacting kinase (Homo sapiens) (UniProt O14578); details: Compound concentration 1000.0 nM
[41] = biological target: Myosin-IIIa (Homo sapiens) (UniProt Q8NEV4); details: Compound concentration 1000.0 nM
[42] = biological target: Macrophage colony-stimulating factor 1 receptor (Homo sapiens) (UniProt P07333); details: Compound concentration 1000.0 nM

Mitogen-activated protein kinase kinase kinase 4 (Homo sapiens), sequence (Q9Y6R4 whole entry, the tested form may be a part): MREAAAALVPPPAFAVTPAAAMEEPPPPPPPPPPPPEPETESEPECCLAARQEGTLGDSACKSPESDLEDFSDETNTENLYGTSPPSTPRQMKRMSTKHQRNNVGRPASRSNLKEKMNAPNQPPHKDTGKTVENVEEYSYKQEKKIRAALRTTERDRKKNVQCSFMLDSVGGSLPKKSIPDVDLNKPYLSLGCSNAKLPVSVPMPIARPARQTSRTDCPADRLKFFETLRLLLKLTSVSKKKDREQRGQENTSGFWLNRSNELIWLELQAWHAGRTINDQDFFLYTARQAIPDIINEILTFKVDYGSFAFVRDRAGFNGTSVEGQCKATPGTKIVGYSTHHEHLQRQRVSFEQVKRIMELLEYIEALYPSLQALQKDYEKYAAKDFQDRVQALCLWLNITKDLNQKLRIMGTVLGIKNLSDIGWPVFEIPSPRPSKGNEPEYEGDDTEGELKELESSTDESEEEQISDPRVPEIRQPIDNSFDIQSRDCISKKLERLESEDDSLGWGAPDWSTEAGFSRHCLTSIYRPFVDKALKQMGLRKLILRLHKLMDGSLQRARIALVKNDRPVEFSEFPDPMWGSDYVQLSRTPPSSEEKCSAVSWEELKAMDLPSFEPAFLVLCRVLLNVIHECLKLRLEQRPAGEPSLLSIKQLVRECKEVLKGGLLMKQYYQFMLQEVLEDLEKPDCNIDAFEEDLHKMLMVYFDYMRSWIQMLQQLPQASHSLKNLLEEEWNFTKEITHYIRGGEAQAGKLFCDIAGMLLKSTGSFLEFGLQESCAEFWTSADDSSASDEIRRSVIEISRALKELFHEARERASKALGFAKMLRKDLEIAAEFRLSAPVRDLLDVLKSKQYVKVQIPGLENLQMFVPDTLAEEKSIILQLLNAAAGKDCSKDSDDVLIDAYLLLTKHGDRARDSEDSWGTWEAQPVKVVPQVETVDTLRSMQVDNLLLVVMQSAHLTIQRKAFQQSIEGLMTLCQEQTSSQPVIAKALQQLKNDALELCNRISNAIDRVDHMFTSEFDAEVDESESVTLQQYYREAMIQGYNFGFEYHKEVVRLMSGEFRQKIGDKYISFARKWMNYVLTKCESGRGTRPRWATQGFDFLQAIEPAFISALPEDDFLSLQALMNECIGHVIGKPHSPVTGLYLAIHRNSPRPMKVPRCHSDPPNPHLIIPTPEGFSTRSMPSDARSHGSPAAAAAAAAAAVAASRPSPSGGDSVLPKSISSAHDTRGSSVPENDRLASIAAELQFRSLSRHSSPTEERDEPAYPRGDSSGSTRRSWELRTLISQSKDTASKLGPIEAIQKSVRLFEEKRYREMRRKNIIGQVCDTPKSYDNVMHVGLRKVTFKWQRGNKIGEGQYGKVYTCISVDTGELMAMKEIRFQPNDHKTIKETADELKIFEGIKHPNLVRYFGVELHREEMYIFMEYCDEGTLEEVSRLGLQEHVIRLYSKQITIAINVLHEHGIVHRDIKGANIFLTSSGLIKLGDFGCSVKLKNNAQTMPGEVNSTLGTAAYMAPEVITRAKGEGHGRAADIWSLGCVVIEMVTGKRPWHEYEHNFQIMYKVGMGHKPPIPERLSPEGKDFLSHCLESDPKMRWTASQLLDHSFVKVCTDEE
Citron Rho-interacting kinase (Homo sapiens), sequence (O14578 whole entry): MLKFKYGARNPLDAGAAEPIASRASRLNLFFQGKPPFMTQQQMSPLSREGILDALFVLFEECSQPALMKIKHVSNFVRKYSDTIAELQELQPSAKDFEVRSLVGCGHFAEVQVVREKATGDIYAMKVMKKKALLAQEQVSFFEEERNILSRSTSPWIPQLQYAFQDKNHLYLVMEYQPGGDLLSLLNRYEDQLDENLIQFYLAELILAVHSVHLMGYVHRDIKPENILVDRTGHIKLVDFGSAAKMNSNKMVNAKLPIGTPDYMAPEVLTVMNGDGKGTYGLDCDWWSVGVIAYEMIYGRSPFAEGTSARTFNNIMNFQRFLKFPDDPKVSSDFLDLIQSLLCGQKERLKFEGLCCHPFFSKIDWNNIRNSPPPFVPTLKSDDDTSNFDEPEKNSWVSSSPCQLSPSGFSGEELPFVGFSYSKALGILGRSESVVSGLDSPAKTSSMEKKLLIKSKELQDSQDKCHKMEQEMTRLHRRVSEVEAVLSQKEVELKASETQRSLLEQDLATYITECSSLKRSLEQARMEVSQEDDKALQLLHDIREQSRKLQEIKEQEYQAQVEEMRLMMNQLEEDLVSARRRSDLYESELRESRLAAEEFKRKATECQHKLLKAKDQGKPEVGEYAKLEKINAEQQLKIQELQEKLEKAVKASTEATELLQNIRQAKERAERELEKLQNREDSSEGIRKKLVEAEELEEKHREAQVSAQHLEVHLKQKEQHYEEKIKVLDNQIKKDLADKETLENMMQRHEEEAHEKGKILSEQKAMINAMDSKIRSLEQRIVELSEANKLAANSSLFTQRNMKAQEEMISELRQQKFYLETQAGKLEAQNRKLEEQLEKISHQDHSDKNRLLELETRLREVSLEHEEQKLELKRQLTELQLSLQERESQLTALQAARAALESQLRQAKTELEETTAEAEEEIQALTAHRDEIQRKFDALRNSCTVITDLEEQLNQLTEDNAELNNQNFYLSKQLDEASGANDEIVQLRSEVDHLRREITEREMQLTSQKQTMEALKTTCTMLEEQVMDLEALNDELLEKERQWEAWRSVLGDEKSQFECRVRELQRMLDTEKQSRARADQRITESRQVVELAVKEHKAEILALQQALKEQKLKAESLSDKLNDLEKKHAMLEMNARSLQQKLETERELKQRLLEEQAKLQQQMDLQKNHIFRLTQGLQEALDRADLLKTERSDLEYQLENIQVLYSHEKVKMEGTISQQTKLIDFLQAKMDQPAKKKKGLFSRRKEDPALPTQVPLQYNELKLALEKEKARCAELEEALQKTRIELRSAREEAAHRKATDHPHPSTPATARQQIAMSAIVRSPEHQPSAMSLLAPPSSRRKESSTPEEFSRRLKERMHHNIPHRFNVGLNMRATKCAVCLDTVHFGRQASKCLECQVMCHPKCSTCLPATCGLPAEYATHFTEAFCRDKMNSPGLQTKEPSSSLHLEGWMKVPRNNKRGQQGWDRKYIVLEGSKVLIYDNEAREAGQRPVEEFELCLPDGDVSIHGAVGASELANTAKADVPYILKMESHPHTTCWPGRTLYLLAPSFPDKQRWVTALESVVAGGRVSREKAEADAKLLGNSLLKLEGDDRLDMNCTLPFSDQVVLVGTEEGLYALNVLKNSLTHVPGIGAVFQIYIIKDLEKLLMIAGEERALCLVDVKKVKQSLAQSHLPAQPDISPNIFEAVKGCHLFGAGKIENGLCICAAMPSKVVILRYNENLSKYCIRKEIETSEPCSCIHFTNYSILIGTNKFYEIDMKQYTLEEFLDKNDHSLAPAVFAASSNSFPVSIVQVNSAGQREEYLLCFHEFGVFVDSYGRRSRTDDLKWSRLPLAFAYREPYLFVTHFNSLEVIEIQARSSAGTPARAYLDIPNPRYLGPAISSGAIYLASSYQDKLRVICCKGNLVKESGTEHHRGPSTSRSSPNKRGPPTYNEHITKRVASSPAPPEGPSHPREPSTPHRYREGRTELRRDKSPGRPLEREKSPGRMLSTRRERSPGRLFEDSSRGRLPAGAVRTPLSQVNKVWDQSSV
Ephrin type-A receptor 2 (Homo sapiens), sequence (P29317 whole entry): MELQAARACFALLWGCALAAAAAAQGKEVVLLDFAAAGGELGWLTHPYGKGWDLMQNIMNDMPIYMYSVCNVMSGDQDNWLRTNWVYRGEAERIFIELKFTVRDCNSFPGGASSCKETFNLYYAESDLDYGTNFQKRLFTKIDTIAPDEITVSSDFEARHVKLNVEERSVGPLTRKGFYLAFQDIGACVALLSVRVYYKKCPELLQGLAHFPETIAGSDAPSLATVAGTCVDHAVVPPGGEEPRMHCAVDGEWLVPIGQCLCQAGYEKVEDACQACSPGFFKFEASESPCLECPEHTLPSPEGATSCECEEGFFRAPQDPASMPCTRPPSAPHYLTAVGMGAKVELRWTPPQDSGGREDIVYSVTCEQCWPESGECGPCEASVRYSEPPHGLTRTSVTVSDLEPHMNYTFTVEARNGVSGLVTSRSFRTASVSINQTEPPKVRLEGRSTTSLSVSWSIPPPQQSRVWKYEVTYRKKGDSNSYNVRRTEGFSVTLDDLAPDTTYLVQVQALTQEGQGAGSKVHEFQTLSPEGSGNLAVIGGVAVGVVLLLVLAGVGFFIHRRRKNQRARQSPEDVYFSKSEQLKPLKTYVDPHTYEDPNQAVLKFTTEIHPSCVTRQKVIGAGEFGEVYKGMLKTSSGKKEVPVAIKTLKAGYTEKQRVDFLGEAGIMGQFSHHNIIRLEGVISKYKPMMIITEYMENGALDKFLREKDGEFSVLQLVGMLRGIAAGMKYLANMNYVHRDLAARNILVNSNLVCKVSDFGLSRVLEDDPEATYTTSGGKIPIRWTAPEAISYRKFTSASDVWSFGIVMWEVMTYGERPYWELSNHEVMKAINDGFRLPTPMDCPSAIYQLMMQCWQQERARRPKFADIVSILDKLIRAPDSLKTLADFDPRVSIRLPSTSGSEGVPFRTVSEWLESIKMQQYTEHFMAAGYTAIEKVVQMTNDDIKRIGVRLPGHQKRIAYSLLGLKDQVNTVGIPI
Cyclin-dependent kinase-like 1 (Homo sapiens), sequence (Q00532 whole entry): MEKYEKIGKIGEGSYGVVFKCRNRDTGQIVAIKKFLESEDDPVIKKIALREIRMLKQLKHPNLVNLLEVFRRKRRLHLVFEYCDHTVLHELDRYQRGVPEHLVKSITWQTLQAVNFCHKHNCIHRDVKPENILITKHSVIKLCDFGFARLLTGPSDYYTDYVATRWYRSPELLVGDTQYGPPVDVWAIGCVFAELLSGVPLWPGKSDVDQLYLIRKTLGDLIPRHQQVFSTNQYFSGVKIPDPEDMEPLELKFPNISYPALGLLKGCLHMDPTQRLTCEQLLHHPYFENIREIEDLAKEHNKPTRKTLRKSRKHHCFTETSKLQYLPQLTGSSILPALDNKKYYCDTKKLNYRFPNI

CCOCCn1cc(C(=O)Nc2ccc(-n3nc(-c4cccnc4)cc3C(F)(F)F)cn2)ccc1=O [BI 1935]
inactive: residual activity [1] 100% | residual activity [2] 66% | residual activity [3] 93% | residual activity [4] 80% | residual activity [5] 79% | residual activity [6] 100% | residual activity [7] 104% | residual activity [8] 86% | residual activity [9] 74% | residual activity [10] 100% | inhibition [11] 18.8% | residual activity [12] 100% | residual activity [13] 87% | residual activity [14] 86% | residual activity [15] 95% | residual activity [16] 100% | residual activity [17] 89% | residual activity [18] 59% | residual activity [19] 84% | residual activity [20] 100% | residual activity [21] 69% | residual activity [22] 83% | residual activity [23] 96% | residual activity [24] 84% | residual activity [25] 91% | residual activity [26] 100% | residual activity [27] 71% | residual activity [28] 91% | residual activity [29] 65% | residual activity [30] 93% | residual activity [31] 112% | residual activity [32] 80% | residual activity [33] 100% | residual activity [34] 93% | residual activity [35] 89% | residual activity [36] 63% | residual activity [37] 100% | residual activity [38] 100% | residual activity [39] 99% | residual activity [40] 97% | residual activity [41] 100% | residual activity [42] 100%
